Reference: patent publication US20100247427A1, “Methods of inhibiting cell growth and methods of enhancing radiation responses” (University of South Florida, priority 2005, published 2010)

Key:
DU145 cells = assay: TUNEL assay for apoptosis; format: cell-based, Human; conditions: Cisplatin plus radiation; FIG. 5
Experimental: TUNEL assay. Cells were labeled for apoptotic DNA strand breaks by terminal deoxyribonucleotidyl transferase-mediated dUTP nick end labeling (TUNEL) reaction using a flow cytometry assay (Roche Applied Science, Indianapolis, Ind.) according to the instructions of the supplier. DU145 cells were treated with CPA-7 for 4 hours, then irradiated, and subjected to the TUNEL assay 24 to 48 hours later. To determine cellular viability, cells were harvested by trypsinization and counted by trypan blue exclusion assay at 24 and 48 hours after irradiation. All experiments were done in triplicate.
The enhancement of radiation responsiveness was also evident when apoptosis was measured using a TUNEL assay (FIGS. 4 and 5). DU145 cells were pre-treated for 4 hours with CPA-7 or vehicle alone prior to radiation. A TUNEL assay was performed 24 hours post-radiation and the results are depicted in FIG. 4. At 24 hours, only 2% of untreated cells had undergone spontaneous apoptosis. […] In contrast, 15.7% of cells treated with both radiation and CPA-7 had undergone apoptosis at 24 hours, indicative of a synergistic effect. FIG. 5 depicts the results of a similar assay in which cells were pre-treated with CPA-7 for 24 hours prior to irradiation. […] Additionally, not all platinum complexes have this effect.

Stat3 = Stat3 (Homo sapiens, UniProt P40763); conditions: other reports; cited from earlier work
Stat3, sequence (P40763 whole entry, species assumed): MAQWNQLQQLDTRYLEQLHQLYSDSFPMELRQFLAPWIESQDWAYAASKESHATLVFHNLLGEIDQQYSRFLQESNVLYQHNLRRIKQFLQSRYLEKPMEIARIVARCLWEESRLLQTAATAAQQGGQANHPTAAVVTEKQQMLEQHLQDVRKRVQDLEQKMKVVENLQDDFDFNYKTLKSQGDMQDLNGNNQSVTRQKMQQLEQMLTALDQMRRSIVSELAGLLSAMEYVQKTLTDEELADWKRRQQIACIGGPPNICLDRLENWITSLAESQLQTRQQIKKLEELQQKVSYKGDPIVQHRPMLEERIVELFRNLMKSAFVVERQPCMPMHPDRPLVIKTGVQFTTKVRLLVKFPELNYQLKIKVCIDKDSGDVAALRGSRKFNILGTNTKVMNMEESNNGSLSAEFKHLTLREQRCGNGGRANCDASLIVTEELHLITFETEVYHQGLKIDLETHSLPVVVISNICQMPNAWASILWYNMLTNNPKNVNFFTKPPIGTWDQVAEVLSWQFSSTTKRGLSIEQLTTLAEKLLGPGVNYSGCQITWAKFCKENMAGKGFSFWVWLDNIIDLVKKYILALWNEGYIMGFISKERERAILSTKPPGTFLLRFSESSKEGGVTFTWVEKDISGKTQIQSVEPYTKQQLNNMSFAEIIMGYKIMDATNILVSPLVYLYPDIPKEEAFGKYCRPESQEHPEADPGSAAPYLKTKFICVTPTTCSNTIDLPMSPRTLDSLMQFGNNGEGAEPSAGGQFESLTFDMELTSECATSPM

Structure (SMILES): N.N.[Cl][Pt][Cl] [Cisplatin]
- apoptosis rate in combination with radiation (TUNEL) (DU145 cells): not significantly enhanced
- modulation of Stat3 activation (Stat3): does not modulate Stat3 activation
